# Measured values from PMC9367672, “In vitro differences in toddalolactone metabolism in various species and its effect on cytochrome P450 expression” (Pharmaceutical Biology, 2022).
# Assays:
# Type in all cases: in vitro ADME
# [1] = Enzyme kinetics of toddalolactone metabolism in rat liver microsomes (oxidative metabolism and glucuronidation); details: rat, liver microsomes, pH 7.4, RLMs, Vmax/Km
# Method: (§1) The CYP reaction system (200 μL) consisted of 0.1 M potassium phosphate buffer (pH 7.4), an NADPH-generating system (1 mM NADPH, 10 mM G-6-P, 1 unit/mL G-6-PD, 4 mM MgCl2), and liver microsomes or recombinant human microsomes (supersomes). Each of the in vitro enzymatic assays using liver microsomes was linear with respect to incubation time and amount of protein. After a pre-incubation at 37 °C for 3 min, the reactions were initiated by adding NADP^+. After incubating for 60 min, the reactions were quenched by adding 200 μL of ice-cold acetonitrile. Samples were centrifuged at 18,000 g for 15 min at 4 °C and 10 μL of supernatant was analyzed using an HPLC system. NADPH or CYP enzyme sources were not used in the control group to ensure that the metabolic reactions were CYP- and NADPH-dependent. All incubation assays were completed in triplicate. The data are presented as mean ± standard deviation (SD).
# (§2) In the UGT reaction system, liver microsomes were incubated in 200 μL of the reaction system containing 4 mM UDPGA, 5 mM MgCl2, 20 µg/mL alamethicin, and 50 mM Tris-HCl buffer (pH 7.4). After pre-incubation at 37 °C for 3 min, UDPGA was added to the mixture to initiate the reactions. The mixtures were incubated at 37 °C for 60 min, followed by the addition of 200 μL of cold methanol to terminate the reactions. After centrifugation at 18,000 g for 15 min, 10 μL of the supernatant was analyzed by HPLC.
# (§3) The enzyme kinetics of toddalolactone in oxidative metabolism and glucuronidation were determined by incubating liver microsomes (0.2 mg/mL) or CYPs (15 nM) with different concentrations of toddalolactone (1–200 μM). The kinetic parameters including Km and Vmax were obtained by fitting the experimental data to the Michaelis–Menten equation (Equation (1)), biphasic kinetics equation (Equation (2)), or substrate inhibition equation (Equation (3)) (He et al. [2018]), and the results were graphically represented on Eadie–Hofstee plots. The in vitro intrinsic clearance (CLint) was calculated based on the Vmax/Km ratio. Metabolites were quantified using the standard curve for toddalolactone because of the absence of metabolite standards. All incubations were repeated in three independent experiments. Kinetic constants were expressed with mean ± SD: (1) V=Vmax×[S]/Km+[S] (2) V=Vmax1×[S]/Ks1+[S]+Vmax2×[S]/Ks2+[S] (3) V=Vmax×[S]/Ks+[S]+[S]^2/Ksi where v is the rate of reaction, Vmax is the estimated maximum velocity, [S] is the substrate concentration, and Km is the affinity constant of the substrate; Vmax1 and Vmax2 represent the estimated maximum velocity of the two metabolic phases; Ks1 and Ks2 represent the affinity constants for two metabolic phases; Ks and Ksi are the substrate affinity and inhibition constants, respectively.
# (§4) The enzyme kinetics in oxidative metabolism and glucuronidation of toddalolactone were studied, and preliminary experiments were performed to ensure that metabolites were formed in the linear range of both reaction time and microsomal protein concentration. The metabolite with the largest peak area was used to calculate the kinetic parameter values (Km, Vmax and CLint). Based on the results of toddalolactone metabolism in different species, the kinetic parameter values in RLMs, DLMs, MLMs, HLMs, RAMs, MIMs, PLMs, CYP1A1 and CYP3A5 were calculated using P4, P4, P4, P4, P2, P2, P4, P4 and P4 data in oxidative metabolism, respectively. In the glucuronidation reaction, the kinetic parameter values in RLMs, MLMs, HLMs, RAMs and PLMs were calculated using P5, P6, P6, P6 and P5 data, respectively.
# [2] = tested on: RLMs; experiment: as above; details: RLMs; for V max: toddalolactone 1–200 μM
# Method: as §1, §2, §3, §4
# [3] = tested on: PLMs; experiment: Enzyme kinetics of toddalolactone metabolism in mini pig liver microsomes (oxidative metabolism and glucuronidation); details: for V max: toddalolactone 1–200 μM
# Method: as §1, §2, §3, §4
# [4] = P450-catalyzed oxidation, P4 formation
# [5] = glucuronide metabolism, P5 formation
smiles,measurement,setting,value
COc1cc2oc(=O)ccc2c(OC)c1C[C@@H](O)C(C)(C)O [toddalolactone],microsomal CLint,[1]; [4],1.31 µL/min/mg
same,microsomal CLint,[1]; [5],0.69 µL/min/mg
same,K m,[2]; [4],121.13 ± 31.89 µM
same,V max,[2]; [4],158.26 ± 20.52 pmol/min/mg protein
same,K m,[2]; [5],79.11 ± 22.56 µM
same,V max,[2]; [5],55.89 ± 6.61 pmol/min/mg protein
same,K m,[3]; [4],135.36 ± 32.39 µM
same,V max,[3]; [4],94.24 ± 11.61 pmol/min/mg protein
same,K m,[3]; [5],93.28 ± 22.35 µM
same,V max,[3]; [5],34.12 ± 3.62 pmol/min/mg protein
